Source: patent publication EP0563734A1, “9-fluoro-7-oxo-7H-pyrido(1,2,3-de)(1,4)benzoxazine carboxylic acids and esters and their use as antiviral agents” (BAYER AG, priority 1992, dated 1993)

Each compound was assayed on Hepatitis B Virus (assay: HBV test system: HBV-DNA content in the supernatant of HBV-DNA-transfected hepatoma cells (HEP G2.2.15), after PEG precipitation, with a non-radioactive HBV genomic DNA probe). Settings: HepG2.2.15, 50%ige Hemmung der HBV-DNA Konzentration im Überstand, read-out: IC₅₀.
Assay type: cell-based
Description: Der Nachweis wurde in mit Hepatitis B Virus DNA transfizierten Hepatomzellen (HEP G2.2.15) geführt. Die Ergebnisse der unten aufgeführten Beispiele wurden zu dem in der folgenden Literaturangabe [Sells, M.A.; Chen, M.L., Acs, G., Proc. Natl. Acad. Sci. USA S. 1005 - 1009, Vol. 84 (1987] beschriebenen HBV-Testsystem ermittelt: Transfizierte Hepatomzellen (HEP G2.2.15) wurden mit verschiedenen Konzentrationen der jeweiligen Verbindung inkubiert. Durch Behandlung der transfizierten Hepatomzellinie HEP G2.2.15 mit den erfindungsgemäßen Verbindungen konnte die Reduktion der virusspezifischen HBV-DNA im Überstand sowie eine Reduktion des HBsAg Spiegels gezeigt werden. Es wurde weiter gefunden, daß die erfindungsgemäßen Verbindungen zu einer Reduktion der replikativen Intermediate der Hepatitisviren führen. Im Überstand der Zellkulturen wurde nach PEG Fällung der Gehalt an HBV-DNA bestimmt. Dies geschah unter Verwendung einer nicht radioaktiv markierten HBV genomischen DNA Probe [Pauly, P., 1982, Ph. D. Thesis, University of Göttingen, F.R.G.; Köchel et al., 1990, EMBL, Accession-Nr. X 51790]. Gleichzeitig erfolgte der Nachweis der Beeinflussung der HBsAg Bildung mittels eines kommerziell erhältlichen ELISA Tests. Die angegebenen IC₅₀-Werte beziehen sich auf die Substratkonzentrationen, die unter den oben aufgeführten Testbedingungen eine 50%ige Hemmung der HBV-DNA Konzentration im Überstand bewirken. Tabelle A
Gleichzeitig erfolgte die Bestimmung des möglicherweise vorhandenen cytotoxischen Einflusses der erfindungsgemäßen Verbindungen mittels Kristallviolettfärbung bzw. über den Einbau von radioaktiv markiertem Thymidin in die zelluläre DNA.
`CC1=COc2c(N3CCN(C4CC4)CC3)c(F)cc3c(=O)c(C(=O)O)cn1c23` [Beispiel 9, 10-(4-Cyclopropyl-piperazin-1-yl)-9-fluor-3-methyl-7-oxo-7H-pyrido-[1,2,3-de][1,4]benzoxazin-6-carbonsäure] was tested, and the IC50 was 0.1 µM. `CCOC(=O)C1=Cn2cc(C(=O)OCC)c(=O)c3cc(F)c(F)c(c32)O1` [Beispiel I, 9,10-Difluor-2-ethoxycarbonyl-7-oxo-7H-pyrido[1,2,3-de][1,4]benzoxazin-6-carbonsäureethylester] was tested, and the IC50 was 0.5 µM. For `CCOC(=O)c1cn2c3c(c(F)c(F)cc3c1=O)OC(C(C)(C)CCCOc1ccccc1)=C2` [Beispiel VIII, 9,10-Difluor-2-(2-methyl-5-phenoxy-2-pentyl)-7-oxo-7H-pyrido[1,2,3-de][1,4]-benzoxazin-6-carbonsäureethylester], the IC50 was 0.5 µM.
